The values below are quoted from earlier work in US10481151B2, “Isolation of pulmonary arterial endothelial cells from patients with pulmonary vascular disease and uses thereof” (Allegheny-Singer Research Institute, priority 2012, dated 2019).

For this data set the following is noted: short half life, so the drug must be administered intravenously over a prolonged time frame.

The structures appear in SMILES notation.

As for `CC#CCC(C)[C@H](O)/C=C/[C@@H]1[C@H]2C/C(=C/CCCC(=O)O)C[C@H]2C[C@H]1O` (stereo partly drawn) [iloprost], the half life result is reported as “about 6 minutes”.
As for `CCCCC[C@H](O)CC[C@@H]1[C@H]2Cc3cccc(OCC(=O)O)c3C[C@H]2C[C@H]1O` [treprostinil], the half life result is “about 6 minutes”.
With `CCCCC[C@H](O)/C=C/[C@@H]1[C@H]2C/C(=C/CCCC(=O)O)O[C@H]2C[C@H]1O` [epoprostenol], the half life result is given as “about 6 minutes”.
